Patent publication US20260137671A1, “PDK4 as a Cell-Aging Intervention Target and Its Use in Chemotherapy and Anticancer” (Shanghai Institute of Nutrition and Health, Chinese Academy …, priority 2022, published 2026)

Tested on: cancer cells in tumors (PC3/PSC27 xenografts)
Assay: DNA damage and apoptosis in tumors by IHC (γ-H2AX, cleaved caspase 3)
Format: in vivo, SCID mice
Settings: for DNA damage and apoptosis in cancer cells: tumors dissected 7 days after initiation of treatment
Text: FIG. 69. Statistical evaluating values of DNA-damaged cells and apoptotic cells in analyzed tumor specimens, represented as a percentage of cells positively stained by IHC with antibodies against γ-H2AX or caspase 3 (cleaved).
FIG. 70. Representative IHC images of caspase 3 (cleaved) in tumors at the end of therapeutic regimens. Biopsies of placebo-treated animals served as negative controls for drug-treated mice. Scale bar, 100 μm.
Considering the primary in vivo expressive results with MIT and/or PDK4-IN treatment, the inventors next asked how pharmacologically targeting PDK4 could enhance the therapeutic response of tumors. To disclose the possible mechanism(s), the inventors chose to dissect tumors from animals 7 days after initiation of treatment, a timepoint right before the development of resistant colonies.

## O=C1c2ccccc2C(=O)c2c1cccc2-c1cnn(C2CCNCC2)c1 [PDK4-IN]
PDK4-IN added to MIT
  caspase 3 cleavage (IHC): further enhanced
PDK4-IN upon combination with MIT
  DNA damage and apoptosis in cancer cells: prominent efficacy in enhancing these therapeutic indices
Single agent
  DNA damage and apoptosis in cancer cells: neither caused typical DDR nor induced cell apoptosis
